# Measurements reported in ChEMBL document CHEMBL3885881, “DrugMatrix”.
# Organism: Rattus norvegicus
# Assay: DrugMatrix - Regimen: Daily Repeat
# Type: toxicity, organism-based, Sprague-Dawley
# Design: regimen Daily Repeat, gender Male, age 6-8 weeks
# Details: in vivo, po, route oral GAVAGE, vehicle .5 % CMC; for BASOPHIL / EOSINOPHIL / ERYTHROCYTE COUNT / HEMATOCRIT / HEMOGLOBIN / LEUKOCYTE COUNT / LYMPHOCYTE / MEAN CORPUSCULAR HEMOGLOBIN / MEAN CORPUSCULAR HEMOGLOBIN CONCENTRATION / MEAN CORPUSCULAR VOLUME / MONOCYTE / NEUTROPHIL / PLATELET COUNT: tissue Blood; for ALANINE AMINOTRANSFERASE / ALBUMIN / ALKALINE PHOSPHATASE / ASPARTATE AMINOTRANSFERASE / BLOOD UREA NITROGEN / CHLORIDE / CHOLESTEROL / CREATINE PHOSPHOKINASE / CREATININE / GLUCOSE / PHOSPHORUS / POTASSIUM / SODIUM / TOTAL BILIRUBIN / TOTAL PROTEIN: tissue Plasma
# [1] = 0 mg/kg, 72 h, dose level Control, time 3 day
# [2] = 0 mg/kg, 120 h, dose level Control, time 5 day
# [3] = 36 mg/kg, 72 h, dose level Low, time 3 day
# [4] = 36 mg/kg, 120 h, dose level Low, time 5 day
structure (smiles),measurement,setting,value
CCCCc1oc2ccccc2c1C(=O)c1cc(I)c(OCCN(CC)CC)c(I)c1 [AMIODARONE],BASOPHIL,[1],0%
same,EOSINOPHIL,[1],0%
same,ERYTHROCYTE COUNT,[1],6.19 x10E6/uL
same,HEMATOCRIT,[1],36.94%
same,HEMOGLOBIN,[1],14.58 G/DL
same,LEUKOCYTE COUNT,[1],11.54 x10E3/uL
same,LYMPHOCYTE,[1],84.8%
same,MEAN CORPUSCULAR HEMOGLOBIN,[1],23.58 pg
same,MEAN CORPUSCULAR HEMOGLOBIN CONCENTRATION,[1],39.44 G/DL
same,MEAN CORPUSCULAR VOLUME,[1],59.76 fL
same,MONOCYTE,[1],1.4%
same,NEUTROPHIL,[1],13.8%
same,PLATELET COUNT,[1],1068.8 x10E3/uL
same,ALANINE AMINOTRANSFERASE,[1],38.17 u/L
same,ALBUMIN,[1],3.88 G/DL
same,ALKALINE PHOSPHATASE,[1],391.33 u/L
same,ASPARTATE AMINOTRANSFERASE,[1],69.83 u/L
same,BLOOD UREA NITROGEN,[1],15 mg/dL
same,CHLORIDE,[1],104.17 MEQ/L
same,CHOLESTEROL,[1],72.17 mg/dL
same,CREATINE PHOSPHOKINASE,[1],174.33 u/L
same,CREATININE,[1],0.58 mg/dL
same,GLUCOSE,[1],192.67 mg/dL
same,PHOSPHORUS,[1],10.52 mg/dL
same,POTASSIUM,[1],6.8 MEQ/L
same,SODIUM,[1],149.67 MEQ/L
same,TOTAL BILIRUBIN,[1],0.78 mg/dL
same,TOTAL PROTEIN,[1],6.28 G/DL
same,BASOPHIL,[2],0%
same,EOSINOPHIL,[2],0.17%
same,ERYTHROCYTE COUNT,[2],6.72 x10E6/uL
same,HEMATOCRIT,[2],40.02%
same,HEMOGLOBIN,[2],15.83 G/DL
same,LEUKOCYTE COUNT,[2],9.5 x10E3/uL
same,LYMPHOCYTE,[2],87.17%
same,MEAN CORPUSCULAR HEMOGLOBIN,[2],23.57 pg
same,MEAN CORPUSCULAR HEMOGLOBIN CONCENTRATION,[2],39.62 G/DL
same,MEAN CORPUSCULAR VOLUME,[2],59.55 fL
same,MONOCYTE,[2],1.67%
same,NEUTROPHIL,[2],11%
same,PLATELET COUNT,[2],1053.67 x10E3/uL
same,ALANINE AMINOTRANSFERASE,[2],26.33 u/L
same,ALBUMIN,[2],4.02 G/DL
same,ALKALINE PHOSPHATASE,[2],316.67 u/L
same,ASPARTATE AMINOTRANSFERASE,[2],61.33 u/L
same,BLOOD UREA NITROGEN,[2],18.67 mg/dL
same,CHLORIDE,[2],108 MEQ/L
same,CHOLESTEROL,[2],65.17 mg/dL
same,CREATINE PHOSPHOKINASE,[2],161.17 u/L
same,CREATININE,[2],0.75 mg/dL
same,GLUCOSE,[2],177.33 mg/dL
same,PHOSPHORUS,[2],9.72 mg/dL
same,POTASSIUM,[2],6.18 MEQ/L
same,SODIUM,[2],150.5 MEQ/L
same,TOTAL BILIRUBIN,[2],0.68 mg/dL
same,TOTAL PROTEIN,[2],6.55 G/DL
same,BASOPHIL,[3],0%
same,EOSINOPHIL,[3],0%
same,ERYTHROCYTE COUNT,[3],6.18 x10E6/uL
same,HEMATOCRIT,[3],36.8%
same,HEMOGLOBIN,[3],14.4 G/DL
same,LEUKOCYTE COUNT,[3],12.87 x10E3/uL
same,LYMPHOCYTE,[3],77%
same,MEAN CORPUSCULAR HEMOGLOBIN,[3],23.4 pg
same,MEAN CORPUSCULAR HEMOGLOBIN CONCENTRATION,[3],39.13 G/DL
same,MEAN CORPUSCULAR VOLUME,[3],59.8 fL
same,MONOCYTE,[3],2.67%
same,NEUTROPHIL,[3],20.33%
same,PLATELET COUNT,[3],1095 x10E3/uL
same,ALANINE AMINOTRANSFERASE,[3],33 u/L
same,ALBUMIN,[3],3.77 G/DL
same,ALKALINE PHOSPHATASE,[3],365.33 u/L
same,ASPARTATE AMINOTRANSFERASE,[3],56.33 u/L
same,BLOOD UREA NITROGEN,[3],15 mg/dL
same,CHLORIDE,[3],103.67 MEQ/L
same,CHOLESTEROL,[3],84.33 mg/dL
same,CREATINE PHOSPHOKINASE,[3],134.67 u/L
same,CREATININE,[3],0.7 mg/dL
same,GLUCOSE,[3],159.33 mg/dL
same,PHOSPHORUS,[3],11.13 mg/dL
same,POTASSIUM,[3],6.63 MEQ/L
same,SODIUM,[3],148.67 MEQ/L
same,TOTAL BILIRUBIN,[3],0.7 mg/dL
same,TOTAL PROTEIN,[3],6.13 G/DL
same,BASOPHIL,[4],0%
same,EOSINOPHIL,[4],0.33%
same,ERYTHROCYTE COUNT,[4],6.73 x10E6/uL
same,HEMATOCRIT,[4],39.47%
same,HEMOGLOBIN,[4],15.6 G/DL
same,LEUKOCYTE COUNT,[4],11.67 x10E3/uL
same,LYMPHOCYTE,[4],86.33%
same,MEAN CORPUSCULAR HEMOGLOBIN,[4],23.27 pg
same,MEAN CORPUSCULAR HEMOGLOBIN CONCENTRATION,[4],39.63 G/DL
same,MEAN CORPUSCULAR VOLUME,[4],58.73 fL
same,MONOCYTE,[4],2%
same,NEUTROPHIL,[4],11.33%
same,PLATELET COUNT,[4],1213.67 x10E3/uL
same,ALANINE AMINOTRANSFERASE,[4],26 u/L
same,ALBUMIN,[4],3.93 G/DL
same,ALKALINE PHOSPHATASE,[4],392.33 u/L
same,ASPARTATE AMINOTRANSFERASE,[4],57.67 u/L
same,BLOOD UREA NITROGEN,[4],14.67 mg/dL
same,CHLORIDE,[4],106.67 MEQ/L
same,CHOLESTEROL,[4],88 mg/dL
same,CREATINE PHOSPHOKINASE,[4],148.33 u/L
same,CREATININE,[4],0.7 mg/dL
same,GLUCOSE,[4],154.67 mg/dL
same,PHOSPHORUS,[4],10.83 mg/dL
same,POTASSIUM,[4],6.67 MEQ/L
same,SODIUM,[4],150.33 MEQ/L
same,TOTAL BILIRUBIN,[4],0.93 mg/dL
same,TOTAL PROTEIN,[4],6.6 G/DL
